Patent publication US8450320B2, “Pyrrolopyrazinone inhibitors of kinases” (AbbVie Inc., priority 2010, dated 2013)

Molecular target: T1, Cdc7 (BEV coexpressed huCDC7/DBF4) (Homo sapiens, UniProt O00311)
T1 construct: made in house; host or cells: BEV (baculovirus expression vector)
Experiment: Cdc7 enzyme inhibition assay ([33P]-ATP, biotinylated peptide substrate, FlashPlate)
Format: biochemical
Settings: Ki generated from IC50 assuming ATP-competitive inhibition; 1 μM ATP, apparent ATP Km 0.7 μM
Description: This example describes the assays that may be used to identify compounds having kinase activity.
Cdc7 (BEV coexpressed huCDC7/DBF4) is prepared internally. Cdc7 assays are conducted as follows with final concentrations as listed. In 384-well v-bottom polypropylene plates, 6 μL compound (2% DMSO), is mixed with 6 μL of Cdc7 (2 ug/mL), and Jerini peptide substrate A-All (biotin-C6linker-TPSDSLIYDDGLS) (2 μM), followed by immediate initiation with 6 μL […] (1 μM, 20 mCi/μmol) using a reaction buffer comprising 25 mM HEPES, pH 7.5, 1 mM DTT, 10 mM MgCl2, 100 μM Na3VO4, 0.075 mg/ml Triton X-100. Reactions are quenched after 1 hr by the addition of 90 μL stop buffer (50 mM EDTA, 2M NaCl). 85 μL of the stopped reactions are transferred to 384-well streptavidin-coated plates (FlashPlate Plus, Perkin Elmer), incubated 30 minutes at room temperature and washed 3 times with 0.05% Tween-20/PBS using an ELX-405 automated plate washer (BioTek), and counted on a TopCount Scintillation Plate Reader (Packard). IC50 values are determined via non-linear regression fitting of enzyme inhibition data and corresponding Ki values are generated assuming ATP-competitive (equilibrium) inhibition and using the experimentally determined apparent ATP Km of 0.7 μM (as determined using the above assay condition, but varying ATP).
Table 1 depicts enzyme inhibition data (Ki) for exemplary compounds. In Table 1, “A” represents a Ki of less than 10 nM, “B” represents a Ki of between 10 nM and 100 nM, and “C” represents a Ki of greater than 100 nM.

T1 sequence (O00311 whole entry): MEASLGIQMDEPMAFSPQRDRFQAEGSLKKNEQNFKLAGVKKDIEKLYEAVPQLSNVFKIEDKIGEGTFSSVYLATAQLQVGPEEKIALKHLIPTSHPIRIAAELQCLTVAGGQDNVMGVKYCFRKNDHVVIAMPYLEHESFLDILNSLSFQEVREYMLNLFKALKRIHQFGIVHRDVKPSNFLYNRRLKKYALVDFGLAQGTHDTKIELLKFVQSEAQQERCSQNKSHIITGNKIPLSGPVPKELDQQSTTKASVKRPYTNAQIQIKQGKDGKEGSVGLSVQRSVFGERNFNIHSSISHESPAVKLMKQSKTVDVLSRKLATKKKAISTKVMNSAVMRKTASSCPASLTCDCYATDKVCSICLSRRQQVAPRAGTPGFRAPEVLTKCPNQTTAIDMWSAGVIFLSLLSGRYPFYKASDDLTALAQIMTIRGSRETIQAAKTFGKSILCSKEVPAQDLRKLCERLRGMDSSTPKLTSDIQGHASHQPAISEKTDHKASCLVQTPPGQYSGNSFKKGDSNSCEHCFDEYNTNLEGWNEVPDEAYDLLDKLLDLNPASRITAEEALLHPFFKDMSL
T1 sequence (Q9UBU7 whole entry partner): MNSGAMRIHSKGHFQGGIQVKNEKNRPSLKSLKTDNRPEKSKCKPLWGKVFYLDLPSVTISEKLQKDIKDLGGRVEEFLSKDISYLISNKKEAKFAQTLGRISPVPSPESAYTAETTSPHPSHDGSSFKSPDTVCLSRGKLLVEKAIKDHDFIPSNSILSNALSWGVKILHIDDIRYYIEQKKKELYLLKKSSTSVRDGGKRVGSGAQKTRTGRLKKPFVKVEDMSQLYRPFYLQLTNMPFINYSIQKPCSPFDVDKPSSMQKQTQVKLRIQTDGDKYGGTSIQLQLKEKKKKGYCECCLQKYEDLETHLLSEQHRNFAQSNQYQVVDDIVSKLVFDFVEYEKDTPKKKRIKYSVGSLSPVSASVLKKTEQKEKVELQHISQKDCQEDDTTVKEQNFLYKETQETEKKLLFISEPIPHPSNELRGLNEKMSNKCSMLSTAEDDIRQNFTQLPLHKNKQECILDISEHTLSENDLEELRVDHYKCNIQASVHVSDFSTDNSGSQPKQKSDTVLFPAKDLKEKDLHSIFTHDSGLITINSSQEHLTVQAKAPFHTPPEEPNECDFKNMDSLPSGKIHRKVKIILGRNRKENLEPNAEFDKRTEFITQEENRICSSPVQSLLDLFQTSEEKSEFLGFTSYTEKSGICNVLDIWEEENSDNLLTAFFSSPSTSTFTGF

Ki [nM] | Compound
< 10 | N#Cc1cc(Cc2c[nH]c(=O)c3cc(-c4ccncc4)cn23)ccc1F [Example 1, 2-fluoro-5-{[1-oxo-7-(pyridin-4-yl)-1,2-dihydropyrrolo[1,2-a]pyrazin-4-yl]methyl}benzonitrile]
< 10 | N#Cc1cc(Cc2c[nH]c(=O)c3cc(-c4c[nH]c5ncccc45)cn23)ccc1F [Example 2, 2-fluoro-5-{[1-oxo-7-(1H-pyrrolo[2,3-b]pyridin-3-yl)-1,2-dihydropyrrolo[1,2-a]pyrazin-4-yl]methyl}benzonitrile]
< 10 | O=C(O)c1cc(Cc2c[nH]c(=O)c3cc(-c4c[nH]c5ncccc45)cn23)ccc1F [Example 3, 2-fluoro-5-{[1-oxo-7-(1H-pyrrolo[2,3-b]pyridin-3-yl)-1,2-dihydropyrrolo[1,2-a]pyrazin-4-yl]methyl}benzoic acid]
10 to 100 | CCOC(=O)c1cccc(Cc2c[nH]c(=O)c3cc(-c4ccncc4)cn23)c1 [Example 4, ethyl 3-{[1-oxo-7-(pyridin-4-yl)-1,2-dihydropyrrolo[1,2-a]pyrazin-4-yl]methyl}benzoate]
< 10 | O=C(O)c1cccc(Cc2c[nH]c(=O)c3cc(-c4c[nH]c5ncccc45)cn23)c1 [Example 5, 3-{[1-oxo-7-(1H-pyrrolo[2,3-b]pyridin-3-yl)-1,2-dihydropyrrolo[1,2-a]pyrazin-4-yl]methyl}benzoic acid]
< 10 | CCOC(=O)c1cccc(Cc2c[nH]c(=O)c3cc(-c4c[nH]c5ncccc45)cn23)c1 [Example 6, ethyl 3-{[1-oxo-7-(1H-pyrrolo[2,3-b]pyridin-3-yl)-1,2-dihydropyrrolo[1,2-a]pyrazin-4-yl]methyl}benzoate]
10 to 100 | O=C(O)c1cccc(Cc2c[nH]c(=O)c3cc(-c4ccncc4)cn23)c1 [Example 7, 3-{[1-oxo-7-(pyridin-4-yl)-1,2-dihydropyrrolo[1,2-a]pyrazin-4-yl]methyl}benzoic acid]
> 100 | CCOC(=O)c1cccc(Cc2c[nH]c(=O)c3cc(-c4cccnc4)cn23)c1 [Example 8, ethyl 3-{[1-oxo-7-(pyridin-3-yl)-1,2-dihydropyrrolo[1,2-a]pyrazin-4-yl]methyl}benzoate]
< 10 | CCOC(=O)c1cccc(Cc2c[nH]c(=O)c3cc(-c4cn[nH]c4)cn23)c1 [Example 9, ethyl 3-{[1-oxo-7-(1H-pyrazol-4-yl)-1,2-dihydropyrrolo[1,2-a]pyrazin-4-yl]methyl}benzoate]
< 10 | NC(=O)c1cccc(Cc2c[nH]c(=O)c3cc(-c4c[nH]c5ncccc45)cn23)c1 [Example 10, 3-{[1-oxo-7-(1H-pyrrolo[2,3-b]pyridin-3-yl)-1,2-dihydropyrrolo[1,2-a]pyrazin-4-yl]methyl}benzamide]
< 10 | O=C(O)c1cccc(Cc2c[nH]c(=O)c3cc(-c4c[nH]c5nccnc45)cn23)c1 [Example 11, 3-{[1-oxo-7-(5H-pyrrolo[2,3-b]pyrazin-7-yl)-1,2-dihydropyrrolo[1,2-a]pyrazin-4-yl]methyl}benzoic acid]
< 10 | CCOC(=O)c1cccc(Cc2c[nH]c(=O)c3cc(-c4c[nH]c5nccnc45)cn23)c1 [Example 12, ethyl 3-{[1-oxo-7-(5H-pyrrolo[2,3-b]pyrazin-7-yl)-1,2-dihydropyrrolo[1,2-a]pyrazin-4-yl]methyl}benzoate]
< 10 | NC(=O)c1cccc(Cc2c[nH]c(=O)c3cc(-c4cn[nH]c4)cn23)c1 [Example 13, 3-{[1-oxo-7-(1H-pyrazol-4-yl)-1,2-dihydropyrrolo[1,2-a]pyrazin-4-yl]methyl}benzamide]
< 10 | O=c1[nH]cc(Cc2cccc([N+](=O)[O-])c2)n2cc(-c3c[nH]c4ncccc34)cc12 [Example 14, 4-(3-nitrobenzyl)-7-(1H-pyrrolo[2,3-b]pyridin-3-yl)pyrrolo[1,2-a]pyrazin-1(2H)-one]
< 10 | O=C(c1ccc([N+](=O)[O-])cc1)c1c[nH]c(=O)c2cc(-c3c[nH]c4ncccc34)cn12 [Example 15, 4-(4-nitrobenzoyl)-7-(1H-pyrrolo[2,3-b]pyridin-3-yl)pyrrolo[1,2-a]pyrazin-1(2H)-one]
< 10 | N#Cc1ccc(Cc2c[nH]c(=O)c3cc(-c4c[nH]c5ncccc45)cn23)cc1 [Example 16, 4-{[1-oxo-7-(1H-pyrrolo[2,3-b]pyridin-3-yl)-1,2-dihydropyrrolo[1,2-a]pyrazin-4-yl]methyl}benzonitrile]

Ki [nM] | Compound
< 10 | O=C(Nc1ccc(Cc2c[nH]c(=O)c3cc(-c4c[nH]c5ncccc45)cn23)cc1)c1ccncc1 [Example 17, N-(4-{[1-oxo-7-(1H-pyrrolo[2,3-b]pyridin-3-yl)-1,2-dihydropyrrolo[1,2-a]pyrazin-4-yl]methyl}phenyl)isonicotinamide]
< 10 | O=C(Nc1ccc(Cc2c[nH]c(=O)c3cc(-c4c[nH]c5ncccc45)cn23)cc1)C1CCC1 [Example 18, N-(4-{[1-oxo-7-(1H-pyrrolo[2,3-b]pyridin-3-yl)-1,2-dihydropyrrolo[1,2-a]pyrazin-4-yl]methyl}phenyl)cyclobutanecarboxamide]
10 to 100 | CN(c1cccc(Cc2c[nH]c(=O)c3cc(-c4c[nH]c5ncccc45)cn23)c1)C1CCC1 [Example 19, 4-{3-[cyclobutyl(methyl)amino]benzyl}-7-(1H-pyrrolo[2,3-b]pyridin-3-yl)pyrrolo[1,2-a]pyrazin-1(2H)-one]
< 10 | O=C(Nc1ccc(Cc2c[nH]c(=O)c3cc(-c4c[nH]c5ncccc45)cn23)cc1)C1CC1 [Example 20, N-(4-{[1-oxo-7-(1H-pyrrolo[2,3-b]pyridin-3-yl)-1,2-dihydropyrrolo[1,2-a]pyrazin-4-yl]methyl}phenyl)cyclopropanecarboxamide]
< 10 | CS(=O)(=O)Nc1cccc(Cc2c[nH]c(=O)c3cc(-c4c[nH]c5ncccc45)cn23)c1 [Example 21, N-(3-{[1-oxo-7-(1H-pyrrolo[2,3-b]pyridin-3-yl)-1,2-dihydropyrrolo[1,2-a]pyrazin-4-yl]methyl}phenyl)methanesulfonamide]
< 10 | Nc1cccc(Cc2c[nH]c(=O)c3cc(-c4c[nH]c5ncccc45)cn23)c1 [Example 22, 4-(3-aminobenzyl)-7-(1H-pyrrolo[2,3-b]pyridin-3-yl)pyrrolo[1,2-a]pyrazin-1(2H)-one]
< 10 | Nc1ccc(Cc2c[nH]c(=O)c3cc(-c4c[nH]c5ncccc45)cn23)cc1 [Example 23, 4-(4-aminobenzyl)-7-(1H-pyrrolo[2,3-b]pyridin-3-yl)pyrrolo[1,2-a]pyrazin-1(2H)-one]
< 10 | O=c1[nH]cc(Cc2ccc(NCc3ccccn3)cc2)n2cc(-c3c[nH]c4ncccc34)cc12 [Example 24, 4-{4-[(pyridin-2-ylmethyl)amino]benzyl}-7-(1H-pyrrolo[2,3-b]pyridin-3-yl)pyrrolo[1,2-a]pyrazin-1(2H)-one]
< 10 | O=c1[nH]cc(Cc2ccc(CNC3CCC3)cc2)n2cc(-c3c[nH]c4ncccc34)cc12 [Example 25, 4-{4-[(cyclobutylamino)methyl]benzyl}-7-(1H-pyrrolo[2,3-b]pyridin-3-yl)pyrrolo[1,2-a]pyrazin-1(2H)-one]
< 10 | O=C(Nc1ccc(Cc2c[nH]c(=O)c3cc(-c4c[nH]c5ncccc45)cn23)cc1)c1ccco1 [Example 26, N-(4-{[1-oxo-7-(1H-pyrrolo[2,3-b]pyridin-3-yl)-1,2-dihydropyrrolo[1,2-a]pyrazin-4-yl]methyl}phenyl)-2-furamide]
10 to 100 | O=c1[nH]cc(Cc2cccc(N(C3CCC3)C3CCC3)c2)n2cc(-c3c[nH]c4ncccc34)cc12 [Example 27, 4-[3-(dicyclobutylamino)benzyl]-7-(1H-pyrrolo[2,3-b]pyridin-3-yl)pyrrolo[1,2-a]pyrazin-1(2H)-one]
< 10 | O=C(Nc1ccc(Cc2c[nH]c(=O)c3cc(-c4c[nH]c5ncccc45)cn23)cc1)c1cccnc1 [Example 28, N-(4-{[1-oxo-7-(1H-pyrrolo[2,3-b]pyridin-3-yl)-1,2-dihydropyrrolo[1,2-a]pyrazin-4-yl]methyl}phenyl)nicotinamide]
< 10 | O=c1[nH]cc(Cc2ccc(CNS(=O)(=O)C3CC3)cc2)n2cc(-c3c[nH]c4ncccc34)cc12 [Example 29, N-(4-{[1-oxo-7-(1H-pyrrolo[2,3-b]pyridin-3-yl)-1,2-dihydropyrrolo[1,2-a]pyrazin-4-yl]methyl}benzyl)cyclopropanesulfonamide]
10 to 100 | O=c1[nH]cc(Cc2ccc(CN(C3CCC3)C3CCC3)cc2)n2cc(-c3c[nH]c4ncccc34)cc12 [Example 30, 4-{4-[(dicyclobutylamino)methyl]benzyl}-7-(1H-pyrrolo[2,3-b]pyridin-3-yl)pyrrolo[1,2-a]pyrazin-1(2H)-one]
< 10 | CS(=O)(=O)NCc1ccc(Cc2c[nH]c(=O)c3cc(-c4c[nH]c5ncccc45)cn23)cc1 [Example 31, N-(4-{[1-oxo-7-(1H-pyrrolo[2,3-b]pyridin-3-yl)-1,2-dihydropyrrolo[1,2-a]pyrazin-4-yl]methyl}benzyl)methanesulfonamide]
